In PubChem BioAssay (NCI):
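Results reflect a 48-hour exposure of cells in 96-well plates to compound at five concentrations. TGI denotes the concentration required for complete inhibition of growth.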

Experiments:
Assay in all cases: DTP human tumour cell line panel, 48 h
OVCAR-4 ovarian = system: OVCAR-4 ovarian
HL-60(TB) leukemia = system: HL-60(TB) leukemia
XF 498 CNS = system: XF 498 CNS
NCI-H226 lung = system: NCI-H226 lung
DMS 273 small cell lung = system: DMS 273 small cell lung
M19-MEL melanoma = system: M19-MEL melanoma
DMS 114 small cell lung = system: DMS 114 small cell lung
SNB-78 CNS = system: SNB-78 CNS
LXFL 529 NSCLC = system: LXFL 529 NSCLC
OVCAR-3 ovarian = system: OVCAR-3 ovarian

Row | Structure (SMILES) | TGI (OVCAR-4 ovarian) [µM] | TGI (HL-60(TB) leukemia) [µM] | TGI (XF 498 CNS) [µM] | TGI (NCI-H226 lung) [µM] | TGI (DMS 273 small cell lung) [µM] | TGI (M19-MEL melanoma) [µM] | TGI (DMS 114 small cell lung) [µM] | TGI (SNB-78 CNS) [µM] | TGI (LXFL 529 NSCLC) [µM] | TGI (OVCAR-3 ovarian) [µM]
1 | Cc1ccc(C)c(NC(=O)C(=O)C(C(=O)c2ccc3ccccc3c2)C2OC(=O)c3ccccc32)c1 (centres undefined) | > 100 | 52 | 44 | 17.2 | > 100 | 30.5 | 26.3 | > 100 | 25.1 | 
2 | c1ccc(-c2csc3c4ccccc4c4ccccc4[n+]23)cc1 | 18.3 | > 35 | 5.46 | 11.5 | 4.58 | 4.22 | 4.89 | 11.1 | 16.6 | 5.29
